Laboratory results from PubChem BioAssay (NCI).
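Step 1: Grow cells in 96-well plates. Step 2: Expose to compound for 48 hours at 5 concentrations. Step 3: Interpolate endpoints linearly; if unreached, use highest concentration. At the GI50, growth is halved. At the TGI there is no net growth.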

What follows are compounds tested on SNB-75 CNS (assay: DTP human tumour cell line panel, 48 h).

SMILES	GI50 [µM]	TGI [µM]
O=C(Nc1cccc(-n2cc(-c3ccncc3)c(-c3cc(O)cc(Cl)c3)n2)c1)c1ccc(N2CCOCC2)c(C(F)(F)F)c1	0.722	> 100
N#CC1c2ccccc2C=CN1C(=O)CCCl (centres undefined)	10.6	25.3
O=C1NC(=N[C@@H](CO)c2ccccc2)S/C1=C\c1ccc2ncccc2c1	3.64	> 25
O=C1/C(=C/c2ccc(Cl)c(Cl)c2)CN(C(=O)CCN2CCC(=NO)CC2)C/C1=C\c1ccc(Cl)c(Cl)c1	1.38	3.17
O=C(/C=C/C12c3ccccc3C(c3ccccc31)C1C(=O)NC(=O)C12)c1ccccn1 (centres undefined)	1.67	4.34
CC1=C(C(=O)Nc2ccccc2)C(c2ccc(N(C)C)cc2)C(C(=O)Nc2ccccc2)=C(C)N1	–	> 100

What follows are compounds tested on RPMI-8226 leukemia (assay: DTP human tumour cell line panel, 48 h).

SMILES	GI50 [µM]	TGI [µM]
O=C(Nc1cccc(-n2cc(-c3ccncc3)c(-c3cc(O)cc(Cl)c3)n2)c1)c1ccc(N2CCOCC2)c(C(F)(F)F)c1	0.398	2.31
N#CC1c2ccccc2C=CN1C(=O)CCCl (centres undefined)	2.66	9.25
O=C1NC(=N[C@@H](CO)c2ccccc2)S/C1=C\c1ccc2ncccc2c1	8.16	> 25
O=C1/C(=C/c2ccc(Cl)c(Cl)c2)CN(C(=O)CCN2CCC(=NO)CC2)C/C1=C\c1ccc(Cl)c(Cl)c1	0.253	0.84
O=C(/C=C/C12c3ccccc3C(c3ccccc31)C1C(=O)NC(=O)C12)c1ccccn1 (centres undefined)	1.22	4.3
CC1=C(C(=O)Nc2ccccc2)C(c2ccc(N(C)C)cc2)C(C(=O)Nc2ccccc2)=C(C)N1	–	72.9

Each compound was assayed on SK-MEL-28 melanoma (assay: DTP human tumour cell line panel, 48 h).

SMILES	GI50 [µM]	TGI [µM]
O=C(Nc1cccc(-n2cc(-c3ccncc3)c(-c3cc(O)cc(Cl)c3)n2)c1)c1ccc(N2CCOCC2)c(C(F)(F)F)c1	0.759	3.27
N#CC1c2ccccc2C=CN1C(=O)CCCl (centres undefined)	10.7	24
O=C1NC(=N[C@@H](CO)c2ccccc2)S/C1=C\c1ccc2ncccc2c1	> 20.2	> 25
O=C1/C(=C/c2ccc(Cl)c(Cl)c2)CN(C(=O)CCN2CCC(=NO)CC2)C/C1=C\c1ccc(Cl)c(Cl)c1	1.64	3.07
O=C(/C=C/C12c3ccccc3C(c3ccccc31)C1C(=O)NC(=O)C12)c1ccccn1 (centres undefined)	2.03	3.86
CC1=C(C(=O)Nc2ccccc2)C(c2ccc(N(C)C)cc2)C(C(=O)Nc2ccccc2)=C(C)N1	–	36.6

These compounds were tested on NCI/ADR-RES ovarian (assay: DTP human tumour cell line panel, 48 h).

SMILES	GI50 [µM]	TGI [µM]
O=C(Nc1cccc(-n2cc(-c3ccncc3)c(-c3cc(O)cc(Cl)c3)n2)c1)c1ccc(N2CCOCC2)c(C(F)(F)F)c1	4.59	> 100
N#CC1c2ccccc2C=CN1C(=O)CCCl (centres undefined)	23	66.3
O=C1NC(=N[C@@H](CO)c2ccccc2)S/C1=C\c1ccc2ncccc2c1	> 25	> 25
O=C1/C(=C/c2ccc(Cl)c(Cl)c2)CN(C(=O)CCN2CCC(=NO)CC2)C/C1=C\c1ccc(Cl)c(Cl)c1	1.02	4.04
O=C(/C=C/C12c3ccccc3C(c3ccccc31)C1C(=O)NC(=O)C12)c1ccccn1 (centres undefined)	2.81	10.1
CC1=C(C(=O)Nc2ccccc2)C(c2ccc(N(C)C)cc2)C(C(=O)Nc2ccccc2)=C(C)N1	–	> 100

Each compound was assayed on UACC-257 melanoma (assay: DTP human tumour cell line panel, 48 h).

SMILES	GI50 [µM]	TGI [µM]
O=C(Nc1cccc(-n2cc(-c3ccncc3)c(-c3cc(O)cc(Cl)c3)n2)c1)c1ccc(N2CCOCC2)c(C(F)(F)F)c1	2.36	8.48
N#CC1c2ccccc2C=CN1C(=O)CCCl (centres undefined)	13.1	26.5
O=C1NC(=N[C@@H](CO)c2ccccc2)S/C1=C\c1ccc2ncccc2c1	13.9	> 25
O=C1/C(=C/c2ccc(Cl)c(Cl)c2)CN(C(=O)CCN2CCC(=NO)CC2)C/C1=C\c1ccc(Cl)c(Cl)c1	1.74	3.86
O=C(/C=C/C12c3ccccc3C(c3ccccc31)C1C(=O)NC(=O)C12)c1ccccn1 (centres undefined)	1.88	3.56
